Measurements taken from ChEMBL document CHEMBL1144316, “Synthesis and biological activity evaluation of lignan lactones derived from (-)-cubebin” (2005).

Tested on: Rattus norvegicus
Assay: Percentage inhibition of edema formation in rat after 3 hours of treatment with the compound at a dosage of 30 mg/Kg
Format: functional

Row | Compound | inhibition in vivo at 30 mg/kg [%]
1 | Nc1cc2c(cc1C[C@@H]1COC(=O)[C@H]1Cc1cc3c(cc1N)OCO3)OCO2 | 82
2 | O=C1OC[C@@H](Cc2cc3c(cc2[N+](=O)[O-])OCO3)[C@@H]1Cc1cc2c(cc1[N+](=O)[O-])OCO2 | 54
3 | O=C1OC[C@@H](Cc2ccc3c(c2)OCO3)[C@@H]1Cc1ccc2c(c1)OCO2 | 63
4 | OC1OC[C@@H](Cc2ccc3c(c2)OCO3)[C@@H]1Cc1ccc2c(c1)OCO2 (some centres undefined) | 53
